{"source": "patent US6914045B2", "about": "“Glycopeptide antibiotics” (Wyeth Holdings Corporation, priority 2001, dated 2005)", "assay_in_all_cases": "in vitro antibacterial evaluation, MIC by broth dilution", "assay_type_in_all_cases": "cell-based", "key": {"Streptococcus sp.": {"system": "Streptococcus sp.", "conditions": "broth dilution, 18 hours at 35° C.", "in_short": "(§1)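 Read-out: the lowest concentration at which the test strain fails to grow. Serial dilutions (64-0.06 μg/mL) in Muller-Hinton II […], 5×10^5 CFU/mL inoculum, NCCLS M7-A2 procedure.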"}, "Enterococcus sp.": {"system": "Enterococcus sp.", "conditions": "broth dilution, 18 hours at 35° C.", "in_short": "as §1"}, "Staphylococcus sp.": {"system": "Staphylococcus sp.", "conditions": "broth dilution, 18 hours at 35° C.", "in_short": "as §1"}, "Escherichia coli": {"system": "Escherichia coli", "conditions": "18 hours at 35° C."}}}
{"smiles": "CCOc1cc(COCC2OC(OC3C(CO)OC(Oc4ccc(CC5NC(=O)C(C(C)c6ccccc6)NC(=O)CNC(=O)C(CO)NC(=O)C(C(O)C6CNC(=N)N6C6OC(CO)C(O)C(O)C6O)NC(=O)C(C(O)C6CNC(=N)N6)NC5=O)cc4)C(O)C3O)C(O)C(O)C2O)ccc1OC", "note": "(stereo not shown) [Example 238]", "values": [{"measurement": "MIC Streptococcus agalactiae (GC 4564)", "setting": "Streptococcus sp.", "result": 2, "unit": "µg/mL"}, {"measurement": "MIC Streptococcus pneumoniae (ATCC 6301)", "setting": "Streptococcus sp.", "result": 1, "unit": "µg/mL"}, {"measurement": "MIC Streptococcus pneumoniae (GC 1894)", "setting": "Streptococcus sp.", "result": 0.5, "unit": "µg/mL"}, {"measurement": "MIC Streptococcus pneumoniae (GC 4565)", "setting": "Streptococcus sp.", "result": 1, "unit": "µg/mL"}, {"measurement": "MIC Streptococcus pyogenes (GC 4563)", "setting": "Streptococcus sp.", "result": 1, "unit": "µg/mL"}, {"measurement": "MIC Streptococcus pneumoniae (ATCC 6301)", "setting": "Streptococcus sp.; inoculum 5×10^5 CFU/mL, strain ATCC 6301", "result": 1, "unit": "µg/mL"}, {"measurement": "MIC Streptococcus pneumoniae (GC 1894)", "setting": "Streptococcus sp.; inoculum 5×10^5 CFU/mL, strain GC 1894", "result": 0.5, "unit": "µg/mL"}, {"measurement": "MIC Streptococcus pyogenes (GC 4563)", "setting": "Streptococcus sp.; inoculum 5×10^5 CFU/mL, strain GC 4563", "result": 1, "unit": "µg/mL"}, {"measurement": "MIC Streptococcus agalactiae (GC 4564)", "setting": "Streptococcus sp.; inoculum 5×10^5 CFU/mL, strain GC 4564", "result": 2, "unit": "µg/mL"}, {"measurement": "MIC Streptococcus pneumoniae (GC 4565)", "setting": "Streptococcus sp.; inoculum 5×10^5 CFU/mL, strain GC 4565", "result": 1, "unit": "µg/mL"}, {"measurement": "MIC Enterococcus avium (GC 4558)", "setting": "Enterococcus sp.", "result": 16, "unit": "µg/mL"}, {"measurement": "MIC Enterococcus faecalis (ATCC 29212)", "setting": "Enterococcus sp.", "result": 16, "unit": "µg/mL"}, {"measurement": "MIC Enterococcus faecalis (GC 2242)", "setting": "Enterococcus sp.", "result": 16, "unit": "µg/mL"}, {"measurement": "MIC Enterococcus faecalis (GC 2691)", "setting": "Enterococcus sp.", "result": 16, "unit": "µg/mL"}, {"measurement": "MIC Enterococcus faecalis (GC 3059)", "setting": "Enterococcus sp.", "result": 32, "unit": "µg/mL"}, {"measurement": "MIC Enterococcus faecalis (GC 4552)", "setting": "Enterococcus sp.", "result": 32, "unit": "µg/mL"}, {"measurement": "MIC Enterococcus faecalis (GC 4553)", "setting": "Enterococcus sp.", "result": 32, "unit": "µg/mL"}, {"measurement": "MIC Enterococcus faecalis (GC 4554)", "setting": "Enterococcus sp.", "result": 32, "unit": "µg/mL"}, {"measurement": "MIC Enterococcus faecalis (GC 6189)", "setting": "Enterococcus sp.", "result": 16, "unit": "µg/mL"}, {"measurement": "MIC Enterococcus faecium (GC 2243)", "setting": "Enterococcus sp.", "result": 16, "unit": "µg/mL"}, {"measurement": "MIC Enterococcus faecium (GC 4556)", "setting": "Enterococcus sp.", "result": 32, "unit": "µg/mL"}, {"measurement": "MIC Enterococcus faecium (GC 4557)", "setting": "Enterococcus sp.", "result": 4, "unit": "µg/mL"}, {"measurement": "MIC Enterococcus faecalis (ATCC 29212)", "setting": "Enterococcus sp.; strain ATCC 29212", "result": 16, "unit": "µg/mL"}, {"measurement": "MIC Enterococcus faecium (GC 2243)", "setting": "Enterococcus sp.; strain GC 2243", "result": 16, "unit": "µg/mL"}, {"measurement": "MIC Enterococcus faecalis (GC 4552)", "setting": "Enterococcus sp.; strain GC 4552", "result": 32, "unit": "µg/mL"}, {"measurement": "MIC Enterococcus faecalis (GC 4553)", "setting": "Enterococcus sp.; strain GC 4553", "result": 32, "unit": "µg/mL"}, {"measurement": "MIC Enterococcus faecalis (GC 4554)", "setting": "Enterococcus sp.; strain GC 4554", "result": 32, "unit": "µg/mL"}, {"measurement": "MIC Enterococcus faecium (GC 4556)", "setting": "Enterococcus sp.; strain GC 4556", "result": 32, "unit": "µg/mL"}, {"measurement": "MIC Enterococcus faecium (GC 4557)", "setting": "Enterococcus sp.; strain GC 4557", "result": 4, "unit": "µg/mL"}, {"measurement": "MIC Enterococcus avium (GC 4558)", "setting": "Enterococcus sp.; strain GC 4558", "result": 16, "unit": "µg/mL"}, {"measurement": "MIC Enterococcus faecalis (GC 6189)", "setting": "Enterococcus sp.; strain GC 6189", "result": 16, "unit": "µg/mL"}, {"measurement": "MIC Enterococcus faecalis (GC 2242)", "setting": "Enterococcus sp.; inoculum 5×10^5 CFU/mL, strain GC 2242", "result": 16, "unit": "µg/mL"}, {"measurement": "MIC Enterococcus faecalis (GC 2691)", "setting": "Enterococcus sp.; inoculum 5×10^5 CFU/mL, strain GC 2691", "result": 16, "unit": "µg/mL"}, {"measurement": "MIC Enterococcus faecalis (GC 3059)", "setting": "Enterococcus sp.; inoculum 5×10^5 CFU/mL, strain GC 3059", "result": 32, "unit": "µg/mL"}, {"measurement": "MIC Coagulase Negative Staphylococcus (GC 4547)", "setting": "Staphylococcus sp.", "result": 2, "unit": "µg/mL"}, {"measurement": "MIC Coagulase Negative Staphylococcus (GC 4548)", "setting": "Staphylococcus sp.", "result": 2, "unit": "µg/mL"}, {"measurement": "MIC Coagulase Negative Staphylococcus (GC 4549)", "setting": "Staphylococcus sp.", "result": 2, "unit": "µg/mL"}, {"measurement": "MIC Coagulase Negative Staphylococcus (GC 4551)", "setting": "Staphylococcus sp.", "result": 4, "unit": "µg/mL"}, {"measurement": "MIC Coagulase Negative Staphylococcus (GC 6257)", "setting": "Staphylococcus sp.", "result": 1, "unit": "µg/mL"}, {"measurement": "MIC Staphylococcus aureus (ATCC 29213)", "setting": "Staphylococcus sp.", "result": 4, "unit": "µg/mL"}, {"measurement": "MIC Staphylococcus aureus (GC 1131)", "setting": "Staphylococcus sp.", "result": 4, "unit": "µg/mL"}, {"measurement": "MIC Staphylococcus aureus (GC 3051)", "setting": "Staphylococcus sp.", "result": 4, "unit": "µg/mL"}, {"measurement": "MIC Staphylococcus aureus (GC 3053)", "setting": "Staphylococcus sp.", "result": 8, "unit": "µg/mL"}, {"measurement": "MIC Staphylococcus aureus (GC 4541)", "setting": "Staphylococcus sp.", "result": 4, "unit": "µg/mL"}, {"measurement": "MIC Staphylococcus aureus (GC 4542)", "setting": "Staphylococcus sp.", "result": 4, "unit": "µg/mL"}, {"measurement": "MIC Staphylococcus aureus (GC 4544)", "setting": "Staphylococcus sp.", "result": 8, "unit": "µg/mL"}, {"measurement": "MIC Staphylococcus aureus (GC 4545)", "setting": "Staphylococcus sp.", "result": 2, "unit": "µg/mL"}, {"measurement": "MIC Staphylococcus aureus-SMITH (GC 4543)", "setting": "Staphylococcus sp.", "result": 4, "unit": "µg/mL"}, {"measurement": "MIC Staphylococcus haemolyticus (GC 4546)", "setting": "Staphylococcus sp.", "result": 2, "unit": "µg/mL"}, {"measurement": "MIC Staphylococcus aureus (ATCC 29213)", "setting": "Staphylococcus sp.; strain ATCC 29213", "result": 4, "unit": "µg/mL"}, {"measurement": "MIC Staphylococcus aureus (GC 1131)", "setting": "Staphylococcus sp.; strain GC 1131", "result": 4, "unit": "µg/mL"}, {"measurement": "MIC Staphylococcus aureus (GC 3051)", "setting": "Staphylococcus sp.; strain GC 3051", "result": 4, "unit": "µg/mL"}, {"measurement": "MIC Staphylococcus aureus (GC 3053)", "setting": "Staphylococcus sp.; strain GC 3053", "result": 8, "unit": "µg/mL"}, {"measurement": "MIC Staphylococcus aureus (GC 4541)", "setting": "Staphylococcus sp.; strain GC 4541", "result": 4, "unit": "µg/mL"}, {"measurement": "MIC Staphylococcus aureus (GC 4542)", "setting": "Staphylococcus sp.; strain GC 4542", "result": 4, "unit": "µg/mL"}, {"measurement": "MIC Staphylococcus aureus-SMITH (GC 4543)", "setting": "Staphylococcus sp.; strain GC 4543", "result": 4, "unit": "µg/mL"}, {"measurement": "MIC Staphylococcus aureus (GC 4544)", "setting": "Staphylococcus sp.; strain GC 4544", "result": 8, "unit": "µg/mL"}, {"measurement": "MIC Staphylococcus aureus (GC 4545)", "setting": "Staphylococcus sp.; strain GC 4545", "result": 2, "unit": "µg/mL"}, {"measurement": "MIC Staphylococcus haemolyticus (GC 4546)", "setting": "Staphylococcus sp.; strain GC 4546", "result": 2, "unit": "µg/mL"}, {"measurement": "MIC Coagulase Negative Staphylococcus (GC 4547)", "setting": "Staphylococcus sp.; strain GC 4547", "result": 2, "unit": "µg/mL"}, {"measurement": "MIC Coagulase Negative Staphylococcus (GC 4548)", "setting": "Staphylococcus sp.; strain GC 4548", "result": 2, "unit": "µg/mL"}, {"measurement": "MIC Coagulase Negative Staphylococcus (GC 4549)", "setting": "Staphylococcus sp.; strain GC 4549", "result": 2, "unit": "µg/mL"}, {"measurement": "MIC Coagulase Negative Staphylococcus (GC 4551)", "setting": "Staphylococcus sp.; strain GC 4551", "result": 4, "unit": "µg/mL"}, {"measurement": "MIC Coagulase Negative Staphylococcus (GC 6257)", "setting": "Staphylococcus sp.; strain GC 6257", "result": 1, "unit": "µg/mL"}, {"measurement": "MIC Escherichia coli (ATCC 25922)", "setting": "Escherichia coli", "result": ">64", "unit": "µg/mL"}, {"measurement": "MIC Escherichia coli (GC 4559)", "setting": "Escherichia coli", "result": ">64", "unit": "µg/mL"}, {"measurement": "MIC Escherichia coli (GC 4560)", "setting": "Escherichia coli", "result": 2, "unit": "µg/mL"}]}
